Experimental data as given in US10961216B2, “Small molecule modulators of the androgen receptor” (Massachusetts Institute of Technology, priority 2017, dated 2021).
pIC50: −log10 of the molar value. In brackets after ≈: the same amount, converted by molar mass. Like-named read-outs stand apart in the source and are kept apart here.

Columns and labels:
[1] = system: 22Rv1 cell line lentiviral transduced with CMV-firefly luciferase; assay: reporter gene assay to monitor transcriptional effects; type: cell-based; details: Homo sapiens; 22Rv1, CMV-firefly luciferase
Procedure: (§1) All compounds were evaluated in a reporter gene assay (22Rv1 cell line lentiviral transduced with CMV-firefly luciferase) to monitor transcriptional effects and two cell viability assays (Cell-titer blue; PC3 cell line, an AR insensitive cell line, and LNCaP cell line, an AR sensitive cell line). The compounds were also monitored for aggregation.

Solubility = type: physicochemical
[2] = system: LNCaP cell line, an AR sensitive cell line; assay: cell viability assay (Cell-titer blue), LNCaP; type: cell-based; details: Homo sapiens, read-out: LNCaP CTB IC50
Procedure: as §1

[3] = system: PC3 cell line, an AR insensitive cell line; assay: cell viability assay (Cell-titer blue), PC3; type: cell-based; details: Homo sapiens, PC-3, read-out: PC3 CTB IC50
Procedure: as §1

Row | SMILES | Solubility (Solubility) | pIC50 [2] | pIC50 [3] | Solubility (Solubility; read-out: Solubility) | pIC50 [1]
1 | O=C(NCCC1CC2C=CC1C2)c1cccc(OC2CCN(C(=O)C3CCCC3)CC2)c1 (stereo not drawn) [Compound I-3] | 25 mM (≈ 10.9 mg/mL) | 4.78 | 2.45 |  | ~4.61
2 | O=C(NCCC1CC2C=CC1C2)c1cccc(OC2CCN(C(=O)C3CCCCC3)CC2)c1 (stereo not drawn) [Compound I-4] | 25 mM (≈ 11.3 mg/mL) | 4.61 | 1.48 |  | ~4.60
3 | O=C(NCCC1CC2C=CC1C2)c1cccc(OC2CCN(C(=O)C3CCC3)CC2)c1 (stereo not drawn) [Compound I-5] | 25 mM (≈ 10.6 mg/mL) | 4.61 |  |  | ~4.60
4 | O=C(NCCC1CC2C=CC1C2)c1cccc(OC2CCN(C(=O)c3ccccc3)CC2)c1 (stereo not drawn) [Compound I-6] | 25 mM (≈ 11.1 mg/mL) | 5.09 |  |  | ~4.60
5 | O=C(NCCC1CC2C=CC1C2)c1cccc(OC2CCN(C(=O)Cc3ccccc3)CC2)c1 (stereo not drawn) [Compound I-7] | 25 mM (≈ 11.5 mg/mL) | 4.28 |  |  | ~4.59
6 | O=C(NCCC1CC2C=CC1C2)c1cccc(OC2CCN(C(=O)C(F)(F)F)CC2)c1 (stereo not drawn) [Compound I-8] | 25 mM (≈ 10.9 mg/mL) | 4.15 |  |  | 4.66
7 | O=C(NCC1CC2C=CC1C2)c1cccc(OC2CCN(C(=O)C3CC3)CC2)c1 (stereo not drawn) [Compound I-11] | 25 mM (≈ 9.86 mg/mL) |  |  |  | 4.55
8 | O=C(NCC1CC2C=CC1C2)c1cccc(OC2CCN(C(=O)C(F)(F)F)CC2)c1 (stereo not drawn) [Compound I-17] | 25 mM (≈ 10.6 mg/mL) | 4.74 |  |  | 5.28
9 | O=C(NCC1CC2C=CC1C2)c1cccc(OC2CCN(C(=O)C3CCC3)CC2)c1 (stereo not drawn) [Compound I-18] | 25 mM (≈ 10.2 mg/mL) | 4.38 |  |  | ~4.61
10 | O=C(NCC1CC2C=CC1CC2)c1cccc(OC2CCN(C(=O)C3CC3)CC2)c1 (stereo not drawn) [Compound I-23] | 25 mM (≈ 10.2 mg/mL) | 2.99 |  |  | ~4.59
11 | CN(Cc1cccc2ncccc12)C(=O)c1cccc(OC2CCN(C(=O)C3CC3)CC2)c1 [Compound I-24] |  | 2.78 |  | 12.5 mM (≈ 5.54 mg/mL) | 4.69
12 | CCCCC(=O)N1CCC(Oc2cccc(C(=O)NCCC3CC4C=CC3C4)c2)CC1 (stereo not drawn) [Compound I-34] |  | 4.54 | 4.25 | 12.5 mM (≈ 5.31 mg/mL) | ~4.56
13 | C=CCCC(=O)N1CCC(Oc2cccc(C(=O)NCCC3CC4C=CC3C4)c2)CC1 (stereo not drawn) [Compound I-35] | 25 mM (≈ 10.6 mg/mL) | 4.58 |  |  | 4.50
14 | Cc1c(C(=O)N(C)Cc2cccc3ncccc23)sc2ncnc(NCCC3CCCCC3)c12 [II-4] | 25 mM (≈ 11.8 mg/mL) | 4.97 |  |  | 5.02
15 | Cc1c(C(=O)N(C)Cc2cccc3ncccc23)sc2ncnc(NCC3CC4C=CC3CC4)c12 (stereo not drawn) [II-5] | 25 mM (≈ 12.1 mg/mL) | 5.09 | 3.11 |  | 5.63
16 | Cc1c(C(=O)N(C)Cc2cccc3ncccc23)sc2ncnc(NCCC3CC4C=CC3C4)c12 (stereo not drawn) [II-6] | 25 mM (≈ 12.1 mg/mL) | 4.85 | 2.77 |  | 5.08

Second part, led by results:

Row | Solubility (Solubility) | pIC50 [2] | pIC50 [3] | Solubility (Solubility; read-out: Solubility) | SMILES | pIC50 [1]
17 | 25 mM (≈ 11.1 mg/mL) | 3.45 |  |  | O=C(NCCC1CC2C=CC1C2)c1cccc(OC2CCN(C(=O)c3cccnc3)CC2)c1 (stereo not drawn) [Compound I-9] | 
18 | 25 mM (≈ 10.2 mg/mL) |  |  |  | O=C(NCCC1CC2C=CC1C2)c1ccc(OC2CCN(C(=O)C3CC3)CC2)cc1 (stereo not drawn) [Compound I-10] | 
19 | 25 mM (≈ 10.9 mg/mL) | 3.76 |  |  | O=C(NCC12CC3CC(CC(C3)C1)C2)c1cccc(OC2CCN(C(=O)C3CC3)CC2)c1 [Compound I-13] | 
20 | 25 mM (≈ 11.3 mg/mL) |  |  |  | CC(NC(=O)c1cccc(OC2CCN(C(=O)C3CC3)CC2)c1)C12CC3CC(CC(C3)C1)C2 (stereo not drawn) [Compound I-14] | 
21 | 25 mM (≈ 7.48 mg/mL) |  |  |  | CC(=O)Oc1cccc(C(=O)NCC2CC3C=CC2CC3)c1 (stereo not drawn) [Compound I-19] | 
22 | 25 mM (≈ 6.43 mg/mL) |  |  |  | O=C(NCC1CC2C=CC1CC2)c1cccc(O)c1 (stereo not drawn) [Compound I-20] | 
23 | 25 mM (≈ 11.7 mg/mL) | 3.47 |  |  | CCCC(CCC)C(=O)N1CCC(Oc2cccc(C(=O)NCCC3CC4C=CC3C4)c2)CC1 (stereo not drawn) [Compound I-21] | 
24 |  | 2.45 |  | 6.25 mM (≈ 3.17 mg/mL) | O=C(NCCC1CC2C=CC1C2)c1cccc(OC2CCN(C(=O)CCc3ccc(Cl)cc3)CC2)c1 (stereo not drawn) [Compound I-22] | 
25 | 25 mM (≈ 10.2 mg/mL) | 3.41 |  |  | O=C(NCC1CC2C=CC1CC2)c1ccc(OC2CCN(C(=O)C3CC3)CC2)cc1 (stereo not drawn) [Compound I-25] | 
26 | 25 mM (≈ 10.2 mg/mL) | 3.65 | 3.47 |  | O=C(NCCCc1ccccc1)c1cccc(OC2CCN(C(=O)C3CC3)CC2)c1 [Compound I-26] | 
27 |  | 4.54 | 4.30 | 12.5 mM (≈ 5.18 mg/mL) | O=C(Nc1ccc2ccccc2c1)c1cccc(OC2CCN(C(=O)C3CC3)CC2)c1 [Compound I-27] | 
28 | 25 mM (≈ 9.97 mg/mL) | 3.16 | 3.75 |  | O=C(Nc1ccc(Cl)cc1)c1cccc(OC2CCN(C(=O)C3CC3)CC2)c1 [Compound I-28] | 
29 | 25 mM (≈ 10.2 mg/mL) | 4.60 |  |  | CC(C)c1ccc(NC(=O)c2cccc(OC3CCN(C(=O)C4CC4)CC3)c2)cc1 [Compound I-29] | 
30 | 25 mM (≈ 9.11 mg/mL) | 3.87 |  |  | O=C(Nc1ccccc1)c1cccc(OC2CCN(C(=O)C3CC3)CC2)c1 [Compound I-30] | 
31 | 25 mM (≈ 9.46 mg/mL) | 4.20 | 3.78 |  | O=C(NCc1ccccc1)c1cccc(OC2CCN(C(=O)C3CC3)CC2)c1 [Compound I-31] | 
32 | 25 mM (≈ 9.96 mg/mL) | 4.10 | 4.00 |  | O=C(NCCC1CCCCC1)c1cccc(OC2CCN(C(=O)C3CC3)CC2)c1 [Compound I-32] | 
33 | 25 mM (≈ 11 mg/mL) |  | 4.09 |  | CC(=O)CCC(=O)N1CCC(Oc2cccc(C(=O)NCCC3CC4C=CC3C4)c2)CC1 (stereo not drawn) [Compound I-36] | 
34 | 25 mM (≈ 10.6 mg/mL) |  | 2.94 |  | O=C(NCC1C2C=CC(C2)C1CO)c1ccc(OC2CCN(C(=O)C3CC3)CC2)cc1 (stereo not drawn) [Compound I-37] | 
35 |  |  | 2.72 | 12.5 mM (≈ 5.83 mg/mL) | CCOC(=O)C1C2C=CC(C2)C1CNC(=O)c1ccc(OC2CCN(C(=O)C3CC3)CC2)cc1 (stereo not drawn) [Compound I-38] | 
36 | 25 mM (≈ 10.9 mg/mL) | 3.40 | 4.03 |  | O=C(NCC1CC2C=CC1CC2)c1cccc(OC2CCN(C(=O)C(F)(F)F)CC2)c1 (stereo not drawn) [Compound I-39] | 
37 | 25 mM (≈ 11.1 mg/mL) | 3.92 | 4.04 |  | O=C(NCC1CC2C=CC1CC2)c1cccc(OC2CCN(C(=O)c3cccnc3)CC2)c1 (stereo not drawn) [Compound I-40] | 
38 | 25 mM (≈ 12.5 mg/mL) | 3.31 | 2.49 |  | Cc1c(C(=O)N(C)Cc2cccc3ncccc23)sc2ncnc(NCC3C4C=CC(C4)C3CO)c12 (stereo not drawn) [II-3] | 
39 | 25 mM (≈ 11 mg/mL) | 4.17 |  |  | Cc1c(C(=O)Nc2ccc3ccccc3c2)sc2ncnc(NCC3CC4C=CC3C4)c12 (stereo not drawn) [II-7] | 
